Assay results from PMC11123948, “Leucoverdazyls as Novel Potent Inhibitors of Enterovirus Replication” (Pathogens, 2024).
Structures can show the parent of a compound that is named as a salt.

Key:
CVB5 = test: Viral yield reduction assay, CVB5; format: cell-based, Coxsackievirus B5 (clinical isolate); settings: CVB5, Vero cells
CVB4 Powers = test: Thermostability assay; parameters: species or system Coxsackievirus B4 (CVB4, strain Powers); settings: compound 10 µg/mL, thermal gradient 37–55 °C for 2 min
Experimental: The thermostability assay was performed as described previously. The CVB4 strain was chosen because it is sensitive to the pleconaril used in this assay as a reference compound. The compound concentration used in the assay was selected according to the results of preliminary thermostability assays. Briefly, CVB4 Powers (10^4 TCID50) was pre-incubated with the compound (10 µg/mL), pleconaril (10 µg/mL), or an equal volume of MEM (virus control) for 30 min at +37 °C in sterile thin-walled 200 μl PCR-tubes (5 tubes per each treatment condition) in a BioRad CFX PCR-machine (BioRad Laboratories, Inc., Hercules, CA, USA). Then, a thermal gradient of 37–55 °C for 2 min, followed by rapid cooling to 4 °C, was applied. Subsequently, the infectious viral activities of the samples were quantified by end-point dilution assay.

[1] = Cytotoxicity assay (MTT) in RD cells; format: cell-based; settings: human, 24 h incubation with compound only
in vitro [2] = settings: dog
in vitro [3] = settings: human
CVB4 = test: Time-of-addition assay; format: cell-based, Coxsackievirus B4 (CVB4, strain Powers); settings: CVB4 in Vero cells, 1a 5 μg/mL; for Interval of addition with highest inhibitory activity: pleconaril 10 μg/mL, titer at 8 h
in vitro [4] = settings: African green monkey; for CC50 at 24 h: Vero cells
Experimental: (§1) Permissive cells were seeded in 96-well plates in Eagle’s minimal essential medium (MEM) supplemented with 10% FBS. After 24 h, the medium was removed, and the wells were washed with saline. Compounds w [...

CVB3 WT = test: microbe, parasite or virus in culture; format: cell-based, Coxsackievirus B3 (Nancy strain), passaged without 1a; settings: Enterovirus B, CVB3, Vero
CVB3-WT and -R variants = test: Growth kinetics of CVB3 WT and R variants with and without 1a; format: cell-based, Coxsackievirus B3; settings: Vero cells, MOI 0.001, 1a 7 ug/mL, up to 72 h
CVB3 virus = test: Transmission electron microscopy of CVB3-infected Vero cells; settings: MOI 100, 100 µM 1a, 3 h, TEM
Experimental: Vero cells in 6-well plates were incubated with CVB3 virus, MOI = 100, at 4 °C for 1 h. Unbound virions were removed by washing the cells twice with cold MEM; a medium containing 100 µM of 1a was added. […] Cells were incubated for 3 h at 36 °C in 5% CO2. In wells with control virus, MEM without 1a was added. After incubation, cells were collected from the wells, transferred into tubes, and centrifuged at 2000× g for 15 min. Cell pellets were fixed with 1.5% glutaraldehyde in PBS overnight, followed by post-fixation with 1.5% OsO4 for 1 h and uranyl acetate for 45 min at room temperature. They were then dehydrated in graded acetone and embedded in Epon/Araldit resin (Serva Feinbiochemica, Heidelberg, Germany). Thin sections (90 nm) were stained with lead citrate and examined in a JEM-100S electron microscope (JEOL, Tokyo, Japan).

Coxsackie B3 virus = test: microbe, parasite or virus in culture; format: cell-based, Coxsackievirus B3 (CVB3, strain Nancy); settings: Coxsackie B3 virus (Nancy, original), viral yield reduction in Vero cells, 24 h
ECHO30 = test: Viral yield reduction assay, ECHO30; format: cell-based, ECHO30 (clinical isolate); settings: ECHO30, RD cells
[5] = test system: Influenza B/Florida/04/06; test: microbe, parasite or virus in culture; format: cell-based, influenza B virus (strain B/Florida/04/06, Yamagata lineage); settings: MDCK
CVA24 = test: Viral yield reduction assay, CVA24; format: cell-based, Coxsackievirus A24 (clinical isolate); settings: CVA24, RD cells
CVB4 (strain Powers) = test: Viral yield reduction assay, CVB4; format: cell-based, Coxsackievirus B4 (CVB4; settings: Vero cells
CVA16 = test: Viral yield reduction assay, CVA16; format: cell-based, Coxsackievirus A16 (clinical isolate); settings: CVA16, RD cells
Vero cells = test: Cytotoxicity assay (MTT) in Vero cells
Experimental: as §1

CVB3 R = test: microbe, parasite or virus in culture; format: cell-based, Coxsackievirus B3 (Nancy strain), passaged with 1a; settings: Enterovirus B, CVB3, Vero
Ad5 = test: microbe, parasite or virus in culture; format: cell-based, human adenovirus type 5; settings: Human mastadenovirus C, A549
[6] = test system: Influenza A/Puerto Rico/8/34; test: Viral yield reduction assay, influenza A; format: cell-based, Influenza A virus (strain A/Puerto Rico/8/1934 (H1N1)); settings: Influenza A virus, Influenza A/Puerto Rico/8/34, MDCK cells
[7] = Antioxidant activity, DPPH assay; format: physicochemical; settings: DPPH 200 μM in methanol, 30 min at 30 °C; vitamin C as reference; result in words
Experimental: Antioxidant activity was evaluated by spectrophotometric monitoring of the hydrogen transfer reaction with a stable chromogen radical, 2,2-diphenyl-1-picrylhydrazyl (DPPH, Sigma-Aldrich, St. Louis, MO, USA), using vitamin C (Vc) as described before. A solution of DPPH in methanol with a concentration of 200 μM was added to a solution of dihydrotetrazines in the same solvent (concentrations 5 to 50 μM). The reaction vessel (test tube) was wrapped in foil and kept for 30 min at 30 °C, and the optical density was measured at λ 517 nm (DPPH absorption maximum). The antioxidant activity (AO) was calculated by the formula AO = (1 − Atest/Acontr) × 100%, where Atest is the optical density of a solution containing a compound to be tested and DPPH, and Acontr is the optical density of a solution containing DPPH alone. The half-inhibitory concentration (IC50) corresponding to the reduction of the initial DPPH concentration by 50% was determined from the DPPH inhibition percentage plotted against concentrations of compounds 2 through 5 (Figure 1) using the OriginPro 8.5 program (OriginLab Corporation, Northampton, MA, USA) (Model DoseResp).

HSV1 = test: microbe, parasite or virus in culture; format: cell-based, herpes simplex virus type 1; settings: Human alphaherpesvirus 1; HSV1, Vero cells, viral yield reduction
SARS-CoV-2 = test: Viral yield reduction assay, SARS-CoV-2; format: cell-based, SARS-CoV-2 virus (Wuhan strain); settings: Severe acute respiratory syndrome coronavirus 2, SARS-CoV-2, Vero cells
RD cells = test: Cytotoxicity assay (MTT) in RD cells; format: cell-based; settings: 24 h incubation with compound only

Structure (SMILES): c1ccc(C2=NN(c3nc4ccccc4s3)CN(c3ccccc3)N2)cc1 [Compound 1a]
- IC50 (CVB5; Enterovirus B): 1.5 ± 0.3 µM
- Thermostabilizing effect on virion (infectious particles after heating) (CVB4 Powers): no infectious particles were detected when heated above 45 degrees
- CC50 at 24 h [1]: 673 ± 60.1 µM
- CC50 (in vitro [2]): 850 ± 78.3 µM
- CC50 (in vitro [3]): 501 ± 45.7 µM
- Inhibition of viral replication on late addition (CVB4; added later than 6 h after adsorption of the virus): Inhibition of viral replication was not observed
- Interval of addition with highest inhibitory activity (CVB4): from −2 to 4 h post-infection
- CC50 (in vitro [4]): 451 ± 51.2 µM
- CC50 at 24 h (in vitro [4]): 620 ± 52.7 µM
- IC50 (CVB3 WT): 0.48 µM
- Propagation of CVB3 strains in presence of 1a (CVB3-WT and -R variants): the resistant strain was able to effectively propagate in contrast to the wild-type virus
- Examined cells with no replication organelles visible (CVB3 virus): 47 out of 49
- IC50 (Coxsackie B3 virus): 1.8 ± 0.3 µM
- IC50 (Coxsackie B3 virus; Enterovirus B, B3, Vero): 2.7 µM
- IC50 (ECHO30): 1.6 ± 0.4 µM
- IC50 [5]: 40.5 ± 5.1 µM
- IC50 (CVA24; Enterovirus C): 0.9 ± 0.3 µM
- IC50 (CVB4 (strain Powers); Enterovirus B): 1.7 ± 0.5 µM
- IC50 (CVA16; Enterovirus A): 0.8 ± 0.2 µM
- CC50 (Vero cells; SARS-CoV-2 row, 48 h or 24 h depending on virus life cycle, MTT): 656 ± 70.4 µM
- IC50 (CVB3 R): 12.9 µM
- IC50 (Ad5): 43.1 ± 3.8 µM
- IC50 [6]: 38.7 ± 2.9 µM
- Antioxidant activity (DPPH assay) [7]: most pronounced antioxidant activity
- IC50 (HSV1): 46.3 ± 4.4 µM
- IC50 (SARS-CoV-2): 4.5 ± 1.2 µM

Structure (SMILES): COc1ccc(N2CN(c3nc4ccccc4s3)N=C(c3ccccc3)N2)cc1 [Compound 1b]
- CC50 at 24 h (in vitro [4]): > 1350 µM
- IC50 (Coxsackie B3 virus; Enterovirus B, B3, Vero): 5.4 ± 1.1 µM
- Antioxidant activity (DPPH assay) [7]: most pronounced antioxidant activity

Structure (SMILES): Clc1ccc(N2CN(c3nc4ccccc4s3)N=C(c3ccccc3)N2)cc1 [Compound 1c]
- CC50 at 24 h (in vitro [4]): 321 ± 28.2 µM
- IC50 (Coxsackie B3 virus; Enterovirus B, B3, Vero): 7.4 ± 2.2 µM

Structure (SMILES): Brc1ccc(N2CN(c3nc4ccccc4s3)N=C(c3ccccc3)N2)cc1 [Compound 1d]
- CC50 at 24 h (in vitro [4]): 886 ± 90.4 µM
- IC50 (Coxsackie B3 virus; Enterovirus B, B3, Vero): 6.2 ± 1.9 µM

Structure (SMILES): CC1N(c2nc3ccccc3s2)N=C(c2ccccc2)NN1c1ccccc1 (stereo not shown) [Compound 2a]
- CC50 at 24 h (in vitro [4]): > 325 µM
- IC50 (Coxsackie B3 virus; Enterovirus B, B3, Vero): 6.49 ± 0.8 µM

Structure (SMILES): COc1ccc(N2NC(c3ccccc3)=NN(c3nc4ccccc4s3)C2C)cc1 (stereo not shown) [Compound 2b]
- CC50 at 24 h (in vitro [4]): 2050 ± 198 µM
- IC50 (Coxsackie B3 virus; Enterovirus B, B3, Vero): 24.1 ± 3.2 µM

Structure (SMILES): CCc1ccc(N2NC(c3ccccc3)=NN(c3nc4ccccc4s3)C2C)cc1 (stereo not shown) [Compound 2c]
- CC50 at 24 h (in vitro [4]): > 303 µM
- IC50 (Coxsackie B3 virus; Enterovirus B, B3, Vero): > 121 µM

Structure (SMILES): CC1N(c2nc3ccccc3s2)N=C(c2ccccc2)NN1c1ccc(F)cc1 (stereo not shown) [Compound 2d]
- CC50 at 24 h (in vitro [4]): 49.6 ± 3.7 µM
- IC50 (Coxsackie B3 virus; Enterovirus B, B3, Vero): > 49.6 µM

Structure (SMILES): CC1N(c2nc3ccccc3s2)N=C(c2ccccc2)NN1c1ccc(Br)cc1 (stereo not shown) [Compound 2e]
- CC50 at 24 h (in vitro [4]): 69.1 ± 5.9 µM
- IC50 (Coxsackie B3 virus; Enterovirus B, B3, Vero): > 69.1 µM

Structure (SMILES): CCC1N(c2nc3ccccc3s2)N=C(c2ccccc2)NN1c1ccccc1 (stereo not shown) [Compound 3a]
- CC50 at 24 h (in vitro [4]): > 313 µM
- IC50 (Coxsackie B3 virus; Enterovirus B, B3, Vero): > 125 µM

Structure (SMILES): CCC1N(c2nc3ccccc3s2)N=C(c2ccccc2)NN1c1ccc(OC)cc1 (stereo not shown) [Compound 3b]
- CC50 at 24 h (in vitro [4]): 2330 ± 25.3 µM
- IC50 (Coxsackie B3 virus; Enterovirus B, B3, Vero): 60.1 ± 7.2 µM

Structure (SMILES): CCC1N(c2nc3ccccc3s2)N=C(c2ccccc2)NN1c1ccc(F)cc1 (stereo not shown) [Compound 3c]
- CC50 at 24 h (in vitro [4]): 360 ± 41.7 µM
- IC50 (Coxsackie B3 virus; Enterovirus B, B3, Vero): 71.9 ± 6.4 µM

Structure (SMILES): CCC1N(c2nc3ccccc3s2)N=C(c2ccccc2)NN1c1ccc(Br)cc1 (stereo not shown) [Compound 3e]
- CC50 at 24 h (in vitro [4]): 946 ± 89.6 µM
- IC50 (Coxsackie B3 virus; Enterovirus B, B3, Vero): > 210 µM

Structure (SMILES): C=CC1N(c2nc3ccccc3s2)N=C(c2ccccc2)NN1c1ccccc1 (stereo not shown) [Compound 4a]
- CC50 at 24 h (in vitro [4]): > 315 µM
- IC50 (Coxsackie B3 virus; Enterovirus B, B3, Vero): > 126 µM

Structure (SMILES): C=CC1N(c2nc3ccccc3s2)N=C(c2ccccc2)NN1c1ccc(OC)cc1 (stereo not shown) [Compound 4b]
- CC50 at 24 h (in vitro [4]): > 293 µM
- IC50 (Coxsackie B3 virus; Enterovirus B, B3, Vero): > 117 µM

Structure (SMILES): C=CC1N(c2nc3ccccc3s2)N=C(c2ccccc2)NN1c1ccc(Cl)cc1 (stereo not shown) [Compound 4c]
- CC50 at 24 h (in vitro [4]): > 291 µM
- IC50 (Coxsackie B3 virus; Enterovirus B, B3, Vero): 27.9 ± 3.3 µM

Structure (SMILES): C=CC1N(c2nc3ccccc3s2)N=C(c2ccccc2)NN1c1ccc(I)cc1 (stereo not shown) [Compound 4d]
- CC50 at 24 h (in vitro [4]): 1530 ± 17.2 µM
- IC50 (Coxsackie B3 virus; Enterovirus B, B3, Vero): 51.6 ± 6.4 µM

Structure (SMILES): N=C(N)N [Guanidine hydrochloride, reference compound]
- IC50 (CVB5): 474 ± 33.4 µM
- CC50 (RD cells): > 10500 µM
- IC50 (ECHO30): 126 ± 18.2 µM
- IC50 (CVA24): 314 ± 20.1 µM
- IC50 (CVB4 (strain Powers)): 496 ± 26.5 µM
- IC50 (CVA16): 337 ± 28.3 µM
- CC50 (Vero cells; 24 h incubation with compound only, MTT (Table 2)): > 5240 µM

Structure (SMILES): Cc1cc(CCCOc2c(C)cc(-c3noc(C(F)(F)F)n3)cc2C)on1 [Pleconaril, reference compound]
- Thermostabilizing effect on virion (infectious particles after heating) (CVB4 Powers): had a thermostabilizing effect
- Interval of addition with highest inhibitory activity (CVB4): between −2 and 0 h
- CC50 at 24 h (in vitro [4]): 656 ± 58.4 µM
- IC50 (Coxsackie B3 virus; Enterovirus B, B3, Vero): 15.2 ± 1.6 µM
